Molecules are shown by their SMILES. Counter-ions that a name gives are not always drawn. Where only a bound is given, the exact number is not on record here.

A word on the EC50: it is the concentration that produces a half-maximal response.

For the first assay, the target named is Btk enzyme (His-Btk) (Homo sapiens (Human), UniProt Q06187). In words: Btk enzyme activity, IMAP fluorescence polarization assay (Assay Method A).
Btk enzyme (His-Btk), sequence (Q06187 whole entry): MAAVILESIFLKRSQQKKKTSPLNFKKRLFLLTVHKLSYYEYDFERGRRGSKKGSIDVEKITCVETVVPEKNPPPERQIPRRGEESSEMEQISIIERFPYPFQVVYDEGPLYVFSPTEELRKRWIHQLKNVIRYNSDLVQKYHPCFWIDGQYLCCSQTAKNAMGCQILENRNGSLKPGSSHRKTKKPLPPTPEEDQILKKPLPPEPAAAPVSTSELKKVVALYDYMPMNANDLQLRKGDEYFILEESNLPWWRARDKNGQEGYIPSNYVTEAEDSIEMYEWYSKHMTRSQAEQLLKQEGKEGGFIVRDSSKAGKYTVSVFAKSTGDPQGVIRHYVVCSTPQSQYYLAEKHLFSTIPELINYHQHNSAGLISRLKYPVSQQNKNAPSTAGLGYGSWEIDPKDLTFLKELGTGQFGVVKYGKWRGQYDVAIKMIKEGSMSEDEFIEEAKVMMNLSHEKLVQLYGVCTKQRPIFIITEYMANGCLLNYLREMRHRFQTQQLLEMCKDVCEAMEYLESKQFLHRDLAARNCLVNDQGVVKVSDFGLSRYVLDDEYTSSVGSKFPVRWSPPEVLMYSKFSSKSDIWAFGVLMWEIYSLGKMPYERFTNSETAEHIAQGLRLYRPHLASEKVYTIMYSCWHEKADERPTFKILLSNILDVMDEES
Details: not given
For orientation: Fluorescence polarisation rises when a labelled molecule tumbles more slowly, as on binding a larger partner.
Take `CN1CCc2nc(NC(=O)c3ccc(-c4nc([C@H]5CC[C@H](O)CC5)n5ccnc(N)c45)cc3)sc2C1` [Example 18, 4-(8-amino-3-((trans)-4-hydroxycyclohexyl)imidazo[1,5-a]pyrazin-1-yl)-N-(5-methyl-4,5,6,7-tetrahydrothiazolo[5,4-c]pyridin-2-yl)benzamide]: the EC50 lay within 100 to 1000 nM.
The molecule `Cc1nc(-c2ccc(C(=O)Nc3cc(C(F)(F)F)ccn3)cc2)c2c(N)ncc(C(O)CC(C)C)n12` (centres unmarked) [Example 323, 4-(8-amino-5-(1-hydroxy-3-methylbutyl)-3-methylimidazo[1,5-a]pyrazin-1-yl)-N-(4-(trifluoromethyl)pyridin-2-yl)benzamide] returned a half-maximal effective concentration (EC50) of 10 to 100 nM.
On the same count and under the same terms, the same measure for `CCOC(=O)N1C[C@H](c2nc(-c3ccc(C(=O)Nc4cc(C(F)(F)F)ccn4)cc3)c3c(N)nccn23)CC[C@H]1C` (relative stereo) [Example 182, (trans)-ethyl 5-(8-amino-1-(4-(4-(trifluoromethyl)pyridin-2-ylcarbamoyl)phenyl)imidazo [1,5-a]pyrazin-3-yl)-2-methylpiperidine-1-carboxylate, TFA salt]: under 10 nM; for `Nc1nccn2c([C@@H]3CCCN(Cc4ccccc4)C3)nc(-c3ccc(C(=O)Nc4ccccn4)cc3)c12` [Example 133, (R)-4-(8-amino-3-(1-benzylpiperidin-3-yl)imidazo[1,5-a]pyrazin-1-yl)-N-(pyridin-2-yl)benzamide]: 100 to 1000 nM.
With `Nc1nccn2c(N3CCCC(C(=O)NCC4CC4)C3)nc(-c3ccc(C(=O)Nc4ccccn4)cc3)c12` (centres unmarked) [Example 225, 1-(8-amino-1-(4-(pyridin-2-ylcarbamoyl)phenyl)imidazo[1,5-a]pyrazin-3-yl)-N-(cyclopropylmethyl)-piperidine-3-carboxamide, TFA sat], the EC50 is 10 to 100 nM.
The same measure, in the same setting: the same measure for `CC1(C(=O)N2C[C@@H](O)C[C@@H](c3nc(-c4ccc(C(=O)Nc5cc(C(F)(F)F)ccn5)cc4)c4c(N)nccn34)C2)COC1` (relative stereo) [Example 179, 4-(8-amino-3-((cis)-5-hydroxy-1-(3-methyloxetane-3-carbonyl)piperidin-3-yl)imidazo[1,5-a]pyrazin-1-yl)-N-(4-(trifluoromethyl)pyridin-2-yl)benzamide]: 10 to 100 nM; for `Nc1nccn2c([C@@H]3CCCN(CC4CC4)C3)nc(-c3ccc(C(=O)Nc4cc(C(F)(F)F)ccn4)cc3)c12` [Example 140, (R)-4-(8-amino-3-(1-(cyclopropylmethyl)piperidin-3-yl)imidazo[1,5-a]pyrazin-1-yl)-N-(4-(trifluoromethyl)pyridin-2-yl)benzamide, TFA salt]: 10 to 100 nM.
`CN(C)CCCC(=O)N1CC[C@@H](c2nc(-c3ccc(C(=O)Nc4ccccn4)cc3)c3c(N)nccn23)C1` [Example 124, (R)-4-(8-amino-3-(1-(4-(dimethylamino)butanoyl)pyrrolidin-3-yl)imidazo[1,5-a]pyrazin-1-yl)-N-(pyridin-2-yl)benzamide] registered an EC50 of 100 to 1000 nM.
Still for that read-out and setting: the result for `CCC(=O)N1CCC[C@@H](c2nc(-c3ccc(C(=O)Nc4ccccn4)cc3)c3c(N)nccn23)C1` [Example 46, (R)-4-(8-amino-3-(1-propionylpiperidin-3-yl)imidazo[1,5-a]pyrazin-1-yl)-N-(pyridin-2-yl)benzamide] reads under 10 nM; that for `Nc1nccn2c(C3CC34CCN(C(=O)CO)CC4)nc(-c3ccc(C(=O)Nc4ccccn4)cc3)c12` (centres unmarked) [Example 152, 4-(8-amino-3-(6-(2-hydroxyacetyl)-6-azaspiro[2.5]octan-1-yl)imidazo[1,5-a]pyrazin-1-yl)-N-(pyridin-2-yl)benzamide], 100 to 1000 nM.
On the same count and under the same terms, the same measure for `Cc1nc(-c2ccc(C(=O)Nc3cc(C(F)(F)F)ccn3)cc2)c2c(N)ncc(C(=O)NCc3cccnc3)n12` [Example 296, 8-amino-3-methyl-N-(pyridin-3-ylmethyl)-1-(4-(4-(trifluoromethyl)pyridin-2-ylcarbamoyl)phenyl)imidazo[1,5-a]pyrazine-5-carboxamide]: 100 to 1000 nM; for `Nc1nccn2c(C3CCOCC3)nc(-c3ccc(C(=O)Nc4nccs4)cc3)c12` [Example 29, 4-(8-amino-3-(tetrahydro-2H-pyran-4-yl)imidazo[1,5-a]pyrazin-1-yl)-N-(thiazol-2-yl)benzamide]: 100 to 1000 nM.

Staying with this assay, now noted: read-out: EC50 Btk activity values - Assay Method A; IMAP-FP, 60 min pre-incubation, 5 μM ATP; class 100-1000 is given as ≧100 nM-<1 μM.
As to `Nc1nccn2c([C@@H]3CCCN(C(=O)[C@H](O)CO)C3)nc(-c3ccc(C(=O)Nc4cc(C5CC5)ccn4)cc3)c12` [Example 289, 4-(8-amino-3-((R)-1-((R)-2,3-dihydroxypropanoyl)piperidin-3-yl)imidazo[1,5-a]pyrazin-1-yl)-N-(4-cyclopropylpyridin-2-yl)benzamide], the half-maximal effective concentration (EC50) was under 10 nM.
Still for that read-out and setting: the result for `Nc1ncnn2c([C@@H]3CCCN(C(=O)C4CC(F)(F)C4)C3)nc(-c3ccc(C(=O)Nc4cc(C(F)(F)F)ccn4)cc3)c12` [Example 260, (R)-4-(4-amino-7-(1-(3,3-difluorocyclobutanecarbonyl)piperidin-3-yl)imidazo[1,5-f][1,2,4]triazin-5-yl)-N-(4-(trifluoromethyl)pyridin-2-yl)benzamide] reads under 10 nM.
Still for that read-out and setting: the result for `Nc1nccn2c([C@@H]3CCC[C@@H](NC(=O)C4CCC4)C3)nc(-c3ccc(C(=O)Nc4cc(C(F)(F)F)ccn4)cc3)c12` (relative stereo) [Example 171, 4-(8-amino-3-((trans)-3-(cyclobutanecarboxamido)cyclohexyl)imidazo[1,5-a]pyrazin-1-yl)-N-(4-(trifluoromethyl)pyridin-2-yl)benzamide] reads under 10 nM; that for `COC[C@H](C)NC(=O)C1CCCN(c2nc(-c3ccc(C(=O)Nc4cc(C5CC5)ccn4)cc3)c3c(N)nccn23)C1` (stereo partly drawn) [Example 241, 1-(8-amino-1-(4-(4-cyclopropylpyridin-2-ylcarbamoyl)phenyl)imidazo[1,5-a]pyrazin-3-yl)-N-((S)-1-methoxypropan-2-yl)piperidine-3-carboxamide, TFA salt], under 10 nM.
On the same count and under the same terms, the same measure for `CCNC(=O)N1C[C@H](c2nc(-c3ccc(C(=O)Nc4cc(C(F)(F)F)ccn4)cc3)c3c(N)nccn23)CC[C@H]1C` (relative stereo) [Example 186, (trans)-5-(8-amino-1-(4-(4-(trifluoromethyl)pyridin-2-ylcarbamoyl)phenyl)imidazo [1,5-a]pyrazin-3-yl)-N-ethyl-2-methylpiperidine-1-carboxamide, TFA salt]: under 10 nM; for `CCCc1ccnc(NC(=O)c2ccc(-c3nc([C@H]4CC[C@@H](OC)CC4)n4ccnc(N)c34)cc2)c1` [Example 42, 4-(8-amino-3-((cis)-4-methoxycyclohexyl)imidazo [1,5-a]pyrazin-1-yl)-N-(4-propylpyridin-2-yl)benzamide]: under 10 nM; for `Nc1nccn2c(N3CCCC(C(=O)NC4CC(F)(F)C4)C3)nc(-c3ccc(C(=O)Nc4cc(C(F)(F)F)ccn4)cc3)c12` (centres unmarked) [Example 226, 1-(8-amino-1-(4-(4-(trifluoromethyl)pyridin-2-ylcarbamoyl)phenyl)imidazo[1,5-a]pyrazin-3-yl)-N-(3,3-difluorocyclobutyl)piperidine-3-carboxamide, TFA salt]: under 10 nM.
`CCc1cnc(NC(=O)c2ccc(-c3nc([C@H]4CC[C@H](O)CC4)n4ccnc(N)c34)cc2)s1` [Example 4, 4-(8-amino-3-((trans)-4-hydroxycyclohexyl)imidazo[1,5-a]pyrazin-1-yl)-N-(5-ethylthiazol-2-yl)benzamide]: the EC50 is under 10 nM.

These data come from US9718828B2 (MERCK SHARP & DOHME CORP., priority 2011, dated 2017).
